Test results as given in US11358971B2, “Prodrugs of modulators of the NMDA receptor” (H. Lundbeck A/S, priority 2019, dated 2022).

system: not listed separately; experiment: MDR1-MDCKII permeability assay Papp(AB); type: in vitro ADME; conditions: dog, MDCK-MDR1, parent compounds, A to B, 60-minute incubation at 37° C., pH 7.4
Method: (§1) MDR1-MDCKII Permeability Assay Papp(AB)
(§2) MDR1-MDCKII cells (obtained from Piet Borst at the Netherlands Cancer Institute) were seeded onto […] (PET) in 96-well BD insert systems at 2.5×10^5 cells/mL until to 4-7 days for confluent cell monolayer formation.
(§3) Test compounds were diluted with the transport buffer (HBSS with 10 mM HEPES, added 1% BSA, pH 7.4) from DMSO stock solution to a concentration of 0.5 μM (DMSO: 0.4%) and applied to the apical or basolateral side of the cell monolayer. Permeation of the test compounds from A to B direction or B to A direction was determined in triplicate over a 60-minute incubation at 37° C. and 5% CO2 with a relative humidity of 95%. In addition, the efflux ratio of each compound was also determined. Test and reference compounds were quantified by LC/MS/MS analysis based on the peak area ratio of analyte/IS.
(§4) Reference compounds: Fenoterol (conc: 2 μM) was used as low permeability marker and Propranolol (conc: 2 μM) was used as high permeability marker in A to B Permeability, furthermore was bi-directional permeability of a P-glycoprotein substrate (digoxin) included.
(§5) The apparent permeability coefficient Papp (cm/s) was calculated using the equation: Papp=(dCr/dt)×Vr/(A×C0) (1) Where dCr/dt is the cumulative concentration of compound in the receiver chamber as a function of time (μM/s); Vr is the solution volume in the receiver chamber (0.05 mL on the apical side; 0.25 mL on the basolateral side); A is the surface area for the transport, i.e. 0.0804 cm^2 for the area of the monolayer; C0 is the initial concentration in the donor chamber (μM).
(§6) The efflux was calculated using the equation: Efflux ratio=Papp(BA)/Papp(AB) (2)
(§7) The mass balance (Recovery) was calculated. The mass balance is defined as: the sum of the compound recovered from the acceptor chamber and the compound remaining in the donor chamber at the end of the experiment, divided by the initial donor amount. The mass balance should be as high as possible. Criterion: Recovery <50% is insufficient.
(§8) To evaluate the integrity of the cell monolayer, Lucifer Yellow permeability was measured in one direction (A to B). The percentage of Lucifer Yellow was calculated in control wells as an estimation of the overall cell membrane integrity. The wells are considered fully acceptable if % Lucifer Yellow is less than 2%.
(§9) The experiments for the prodrugs were the same as for the parent compounds exemplified in Table 3a.

Row | SMILES | Papp A→B at 60 min, 0.5 µM
1 | N[C@H](CNC(=O)c1cc2nccc(C(F)(F)F)c2s1)C(=O)O [Compound 1f, (R)-2-amino-3-(7-(trifluoromethyl)thieno[3,2-b]pyridine-2-carboxamido) propanoic acid] | 1.03 ×10⁻⁶ cm/s
2 | Cc1cnc2cc(C(=O)NC[C@@H](N)C(=O)O)sc2c1C [Compound 1l, (R)-2-amino-3-(6,7-dimethylthieno[3,2-b]pyridine-2-carboxamido)propanoic acid] | 0.47 ×10⁻⁶ cm/s

same assay, conditions: dog, MDCK-MDR1, prodrug compounds, A to B, 60-minute incubation at 37° C., pH 7.4

Row | SMILES | Papp A→B at 60 min, 0.5 µM
3 | Cc1ccnc2cc(C(=O)NC[C@@H](N)C(=O)OC3CC3)sc12 [Compound 2g, Cyclopropyl (R)-2-amino-3-(7-methylthieno[3,2-b]pyridine-2-carboxamido)propanoate] | 7.11 ×10⁻⁶ cm/s
4 | COC(=O)[C@H](N)CNC(=O)c1cc2nccc(OC(C)C)c2s1 [Compound 2t, Methyl (R)-2-amino-3-(7-isopropoxythieno[3,2-b]pyridine-2-carboxamido)propanoate] | 4.81 ×10⁻⁶ cm/s
5 | Cc1ccnc2cc(C(=O)NC[C@@H](N)C(=O)OCCC(C)C)sc12 [Compound 2l, Isopentyl (R)-2-amino-3-(7-methylthieno[3,2-b]pyridine-2-carboxamido)propanoate] | 6.5 ×10⁻⁶ cm/s
6 | COC(=O)[C@H](N)CNC(=O)c1cc2nccc(CF)c2s1 [Compound 2w, Methyl (R)-2-amino-3-(7-(fluoromethyl)thieno[3,2-b]pyridine-2-carboxamido)propanoate] | 4.19 ×10⁻⁶ cm/s
7 | Cc1ccnc2cc(C(=O)NC[C@@H](N)C(=O)OC3CCCCC3)sc12 [Compound 2n, Cyclohexyl (R)-2-amino-3-(7-methylthieno[3,2-b]pyridine-2-carboxamido)propanoate] | 5.86 ×10⁻⁶ cm/s
8 | COC(=O)[C@H](N)CNC(=O)c1cc2nccc(C(F)F)c2s1 [Compound 2a, Methyl (R)-2-amino-3-(7-(difluoromethyl)thieno[3,2-b]pyridine-2-carboxamido)propanoate] | 8.36 ×10⁻⁶ cm/s
9 | COC(=O)[C@H](N)CNC(=O)c1cc2nccc(C(F)(F)F)c2s1 [Compound 2s, Methyl (R)-2-amino-3-(7-(trifluoromethyl)thieno[3,2-b]pyridine-2-carboxamido)propanoate] | 12.3 ×10⁻⁶ cm/s
10 | Cc1ccnc2cc(C(=O)NC[C@@H](N)C(=O)OCC3CC3)sc12 [Compound 2j, Cyclopropylmethyl (R)-2-amino-3-(7-methylthieno[3,2-b]pyridine-2-carboxamido)propanoate] | 11.9 ×10⁻⁶ cm/s
11 | COC(=O)[C@H](N)CNC(=O)c1cc2nccc(CO)c2s1 [Compound 2v, Methyl (R)-2-amino-3-(7-(hydroxymethyl)thieno[3,2-b]pyridine-2-carboxamido) propanoate] | 1.16 ×10⁻⁶ cm/s
12 | Cc1ccnc2cc(C(=O)NC[C@@H](N)C(=O)OCC(C)C)sc12 [Compound 2i, Isobutyl (R)-2-amino-3-(7-methylthieno[3,2-b]pyridine-2-carboxamido)propanoate] | 8.19 ×10⁻⁶ cm/s
13 | Cc1ccnc2cc(C(=O)NC[C@@H](N)C(=O)OCc3ccccc3)sc12 [Compound 2m, Benzyl (R)-2-amino-3-(7-methylthieno[3,2-b]pyridine-2-carboxamido)propanoate] | 8.68 ×10⁻⁶ cm/s
14 | COC(=O)[C@H](N)CNC(=O)c1cc2nccc(C3CC3)c2s1 [Compound 2b, Methyl (R)-2-amino-3-(7-cyclopropylthieno[3,2-b]pyridine-2-carboxamido) propanoate] | 9.25 ×10⁻⁶ cm/s
15 | CCCCOC(=O)[C@H](N)CNC(=O)c1cc2nccc(C)c2s1 [Compound 2h, Butyl (R)-2-amino-3-(7-methylthieno[3,2-b]pyridine-2-carboxamido)propanoate] | 6.11 ×10⁻⁶ cm/s
16 | COC(=O)[C@H](N)CNC(=O)c1cc2nccc(OC)c2s1 [Compound 2r, Methyl (R)-2-amino-3-(7-methoxythieno[3,2-b]pyridine-2-carboxamido)propanoate] | 5.54 ×10⁻⁶ cm/s
17 | CCOC(=O)[C@H](N)CNC(=O)c1cc2nccc(C)c2s1 [Compound 2d, Ethyl (R)-2-amino-3-(7-methylthieno[3,2-b]pyridine-2-carboxamido)propanoate] | 15.2 ×10⁻⁶ cm/s
18 | COC(=O)[C@H](N)CNC(=O)c1cc2ncc(F)c(C)c2s1 [Compound 2x, Methyl (R)-2-amino-3-(6-fluoro-7-methyl-thieno[3,2-b]pyridine-2-carboxamido)propanoate] | 15.5 ×10⁻⁶ cm/s
19 | COC(=O)[C@H](N)CNC(=O)c1cc2ncc(C)c(C)c2s1 [Compound 2y, Methyl (R)-2-amino-3-(6,7-dimethylthieno[3,2-b]pyridine-2-carboxamido)propanoate] | 7.08 ×10⁻⁶ cm/s
20 | CCCOC(=O)[C@H](N)CNC(=O)c1cc2nccc(C)c2s1 [Compound 2e, Propyl (R)-2-amino-3-(7-methylthieno[3,2-b]pyridine-2-carboxamido)propanoate] | 10.3 ×10⁻⁶ cm/s
21 | COCCOC(=O)[C@H](N)CNC(=O)c1cc2nccc(C)c2s1 [Compound 2k, 2-Methoxyethyl (R)-2-amino-3-(7-methylthieno[3,2-b]pyridine-2-carboxamido)propanoate] | 4.77 ×10⁻⁶ cm/s
22 | Cc1ccnc2cc(C(=O)NC[C@@H](N)C(=O)OC(C)C)sc12 [Compound 2f, Isopropyl (R)-2-amino-3-(7-methylthieno[3,2-b]pyridine-2-carboxamido)propanoate] | 18.4 ×10⁻⁶ cm/s
23 | Cc1ccnc2cc(C(=O)NC[C@@H](N)C(=O)OCC(=O)N3CCCC3)sc12 [Compound 2p, 2-Oxo-2-(pyrrolidin-1-yl)ethyl (R)-2-amino-3-(7-methylthieno[3,2-b]pyridine-2-carboxamido)propanoate] | 0.81 ×10⁻⁶ cm/s
24 | CCc1ccccc1-c1ccnc2cc(C(=O)NC[C@@H](N)C(=O)OC)sc12 [Compound 2q, Methyl (R)-2-amino-3-(7-(2-ethylphenyl)thieno[3,2-b]pyridine-2-carboxamido)propanoate] | 1.97 ×10⁻⁶ cm/s

system: MDR1-MDCKII cells; experiment: MDR1-MDCKII permeability assay Papp(AB); type: in vitro ADME; conditions: parent compounds; 0.5 μM; A to B; 60-minute incubation at 37° C.; pH 7.4
Method: as §1, §2, §3, §4, §5, §6, §7, §8, §9

Row | SMILES | Permeability Papp (AB)
25 | N[C@H](CNC(=O)c1cc2nccc(C(F)F)c2s1)C(=O)O [Compound 1a, (R)-2-amino-3-(7-(difluoromethyl)thieno[3,2-b]pyridine-2-carboxamido)propanoic acid] | BLOQ
26 | CC(C)Oc1ccnc2cc(C(=O)NC[C@@H](N)C(=O)O)sc12 [Compound 1g, (R)-2-amino-3-(7-isopropoxythieno[3,2-b]pyridine-2-carboxamido)propanoic acid] | BLOQ
27 | CCc1ccccc1-c1ccnc2cc(C(=O)NC[C@@H](N)C(=O)O)sc12 [Compound 1d, (R)-2-amino-3-(7-(2-ethylphenyl)thieno[3,2-b]pyridine-2-carboxamido)propanoic acid] | BLOQ
28 | Cc1ccnc2cc(C(=O)NC[C@@H](N)C(=O)O)sc12 [Compound 1c, (R)-2-amino-3-(7-methylthieno[3,2-b]pyridine-2-carboxamido)propanoic acid] | BLOQ
29 | N[C@H](CNC(=O)c1cc2nccc(C3CC3)c2s1)C(=O)O [Compound 1b, (R)-2-amino-3-(7-cyclopropylthieno[3,2-b]pyridine-2-carboxamido) propanoic acid] | BLOQ
30 | COc1ccnc2cc(C(=O)NC[C@@H](N)C(=O)O)sc12 [Compound 1e, (R)-2-amino-3-(7-methoxythieno[3,2-b]pyridine-2-carboxamido)propanoic acid] | BLOQ

system: not listed separately; experiment: In vivo exposure (plasma and brain) after intravenous bolus injection; conditions: compound quantified 1c; dose 2 mg/kg intravenous bolus; male Sprague Dawley rats
Method: Brain disposition of test compound was evaluated in male Sprague Dawley rats (standard body weight range). Briefly, discrete (nominal dose: 2 mg/kg, 2 ml/kg) or cassetted (nominal dose: 1 mg/kg/compound, 2 ml/kg) test compounds were administered by intravenous bolus injection (formulated in 10% hydroxypropyl-β-cyclodextrin or 10-20% Captisol, pH=3).
Serial blood samples were collected from a lateral tail vein at designated time points (n=3 per time point) then rats were put under deep isofluorane induced anaesthesia prior to removal of brains (n=3 per time point). Blood samples were stabilized against further metabolism ex vivo by addition of an esterase inhibitor (100 μM diisopropyl fluorophosphate). […]
Seven calibration standards and three QC samples were prepared in plasma and brain homogenate, respectively, in the concentration range 10-10000 ng/mL. […] Study samples with expected concentration above upper limit of quantification were diluted with blank matrix. […]
Samples were analyzed using an AB Sciex API4000 triple quadrupole (TQ) mass spectrometer operated in positive and negative electrospray ionization and MS/MS mode (multiple reaction monitoring, MRM). […] Quantification was performed by linear regression, 1/x2 weighting.
Concentrations of prodrug and drug in plasma and brain were quantified against matrix matched calibration standards.

Row | SMILES | Total Brain concentration (ng/mL) 30 min post dose
31 | Cc1ccnc2cc(C(=O)NC[C@@H](N)C(=O)OC(C)C)sc12 [Compound 2f, Isopropyl (R)-2-amino-3-(7-methylthieno[3,2-b]pyridine-2-carboxamido)propanoate] | BLOQ

same assay, conditions: compound quantified 1h; dose 2 mg/kg intravenous bolus; male Sprague Dawley rats

Row | SMILES | Total Brain concentration (ng/mL) 30 min post dose
32 | COC(=O)[C@H](N)CNC(=O)c1cc2nccc(Br)c2s1 [Compound 2u, Methyl (R)-2-amino-3-(7-bromothieno[3,2-b]pyridine-2-carboxamido)propanoate] | BLOQ
